Measured values from patent US20020077289A1, “Angiostatin and endostatin binding proteins and methods of use” (priority 2000, published 2002).
Read-outs that look alike come from different tables or passages of the source. Values belong to the molecule of their own block, whether it stands above or below them. Bridges are numbered along the chain shown (N, C = ends). Where no end group is shown, it is not given here.

How the values were obtained:
[1] = tested on: B16-BL6 melanoma cells; assay: B16-BL6 experimental metastasis assay; type: in vivo, C57BL/6J mice
Experimental: C57BL/6J mice were injected via the tail vein with 5×10^4 B16-BL6 melanoma cells on day 0. On day 3, groups of five mice received daily subcutaneous doses of either buffer control, 1.5 nmol (1.5 mg/kg/day) of rhEndostatin in combination with 0, 15, 75 or 375 nmol of control or E37 peptide, or control or E37 peptide alone for eleven days. All mice were sacrificed on day 14, and the number of pulmonary surface metastases in each animal counted. Error bars indicate standard deviation of the mean.
C57BL/6J mice (n=8) were injected intravenously (i.v.) with 5×10^4 B16-BL6 cells/mouse. Three days later treatment commenced. 100 μl of citrate-phosphate buffer (66 mM Sodium Phosphate, 17 mM Citric acid, 59 mM NaCl pH 6.2) containing 1.5 nmol of rhEndostatin and 100 μl of PBS containing either 0, 15, 75 or 375 nmol of control or E37 peptide were mixed and injected subcutaneously (s.c.) daily for 11 days. All mice were then sacrificed, their lungs removed and the number of surface metastases counted. Results were analyzed for statistical significance using the 2-tailed Student's t-test.
The following experiment was conducted to determine the interaction of E37 peptide and Endostatin protein. Briefly, the B16BL6 experimental metastasis assay, as known to those of skill in the art and further described in International Patent Application number PCT/US99/11418, was performed as follows. 5×10^4 B16-BL6 cells in 200 μl of PBS were injected into C57BL/6J mice via the tail vein. Three days post injection treatment was started. The injection received by eight groups of mice were: 1) citrate phosphate/PBS buffer, 2) ^30 μg Endostatin protein (in 100 μl PBS), 3) 30 μg Endostatin protein (in 200 μl PBS), 4) 30 μg Endostatin protein plus 50 times molar excess of control peptide (in 200 μl PBS), 5) 30 μg Endostatin protein plus 250 times molar excess of control peptide (in 200 μl PBS), 6) 30 μg Endostatin protein plus 10 times molar excess of E37 peptide (in 200 μl PBS), 7) 30 μg Endostatin protein plus 50 times molar excess of E37 peptide (in 200 μl PBS), and 8) 30 μg Endostatin protein plus 250 times molar excess of E37 peptide (in 200 μl PBS). Doses were administered daily for eleven days posterior to the thoracic cavity subcutaneously. All mice were sacrificed, the lungs removed and the number of surface metastases in each animal were counted under a stereo microscope.

[2] = tested on: HUVEC microfilaments; assay: Fluorescent staining of formalin fixed endothelial cells with Alexa 488-labeled rhEndostatin; type: cell-based, human; details: 50-fold molar excess (100 μM) of peptide; 40 μg/ml (2 μM) Alexa-rhEndostatin
Experimental: (A), HUVECs, (B), HAECs and (C), HMVECs were incubated in the presence of 40 micrograms per milliliter (μg/ml) Alexa 488-labeled rhEndostatin and photographed at 100× magnification under Alexa 488 (green) excitation wavelength. (D) and (E), HUVECs were incubated simultaneously in anti-tropomyosin TM311 ascites fluid and 40 micrograms per milliliter (μg/ml) Alexa 488-labeled rhEndostatin followed by incubation in Alexa 594 conjugated goat anti-mouse IgG (H+L). The same field was photographed under Alexa 488 (green) and Alexa 594 (red) excitation wavelengths at 100× magnification.
HUVECs were incubated in the presence of 40 micrograms per milliliter (μg/ml) Alexa 488-labeled rhEndostatin alone (A), or in the presence of a 50-fold molar excess of control peptide (B), or E37 peptide (C). Cells were photographed using the same exposure times at 100x magnification under Alexa 488 (green) excitation wavelength.
To detect the binding of Alexa-labeled rhEndostatin 1×10^4 HUVEC, HMVEC and HAECs were plated on 1.5% gelatin coated Nalge Nunc Lab Tek II chamber slides (Naperville, Ill.) and fixed in 10% neutral buffered formalin followed by a methanol wash. The chamber slides were incubated in PBS/1% calf serum containing 40 μg/ml (2 μM) of Alexa 488-labeled rhEndostatin (Narum et al., manuscript in preparation) for 1 hr at room temperature. The slides were washed in PBS, coverslips mounted using fluorescent mounting media (Kirkegaard and Perry Laboratories, Gaithersburg, Md.) and cells photographed under Alexa 488 excitation wavelength. Co-localization studies were performed as above except cells were incubated in PBS/1% calf serum containing 1:200 mouse anti-tropomyosin TM311 (Sigma, St. Louis, Miss.) and 40 μg/ml of Alexa 488-labeled rhEndostatin followed by incubation with goat anti-mouse IgG (H+L) conjugated to Alexa 594 (Molecular Probes, Eugene, Oregon). The same fields were photographed under Alexa 488 and Alexa 594 wavelengths. […]

[3] = target: T1, recombinant human Endostatin protein (Homo sapiens, UniProt P39060); assay: Phage display panning on Endostatin protein; type: binding
T1 construct: recombinant human Angiostatin protein, K1-4 protein, or recombinant human Endostatin protein were coated overnight; made in house; host or cells: Pichia pastoris
T1 sequence (P39060 1572-1754 limits assumed): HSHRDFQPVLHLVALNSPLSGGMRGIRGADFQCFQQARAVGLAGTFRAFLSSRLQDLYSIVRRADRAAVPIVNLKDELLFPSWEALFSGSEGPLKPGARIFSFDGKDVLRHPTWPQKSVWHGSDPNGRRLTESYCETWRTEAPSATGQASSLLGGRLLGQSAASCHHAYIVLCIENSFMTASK
Source text: The Ph.D.-C7C, a disulfide constrained 7-mer phage-display library (New England BioLabs, Beverly, Mass.), was screened as recommended by the manufacturer. Following a third round of amplification individual phage were isolated and the peptide sequences deduced by DNA sequencing.
(§1) The Ph.D.-7 phage display library (New England BioLabs Cat #8100), a combinatorial library consisting of random peptide 7-mers, was screened for 7 amino acid binding peptides. The Ph.D.-7 phage display library consists of linear 7-mer peptides fused to the pIII coat protein of M13 via a Gly-Gly-Gly-Ser flexible linker. The library contains 2.8×10^9 independent clones. The Ph.D. library is useful for identifying targets requiring binding elements concentrated in a short stretch of amino acids.
The Ph.D.-C7C library (New England BioLabs Cat # 8120) is a combinatorial library consisting of random peptide 7-mers flanked by cysteine residues that under non-denaturing conditions are disulfide bonded resulting in the display of cyclized peptides. In non-reducing conditions, the cysteines form a disulfide bond resulting in each peptide being constrained in a disulfide loop. The library contains 3.7×10^9 independent clones that, like the Ph.D.-7 library, result in peptides fused to the pIII coat protein of M13 via a Gly-Gly-Gly-Ser flexible linker. […]

[4] = tested on: recombinant human Angiostatin protein; assay: Phage display panning on Angiostatin protein; type: binding
Sequence of recombinant human Angiostatin protein (P00747 103-352 limits assumed): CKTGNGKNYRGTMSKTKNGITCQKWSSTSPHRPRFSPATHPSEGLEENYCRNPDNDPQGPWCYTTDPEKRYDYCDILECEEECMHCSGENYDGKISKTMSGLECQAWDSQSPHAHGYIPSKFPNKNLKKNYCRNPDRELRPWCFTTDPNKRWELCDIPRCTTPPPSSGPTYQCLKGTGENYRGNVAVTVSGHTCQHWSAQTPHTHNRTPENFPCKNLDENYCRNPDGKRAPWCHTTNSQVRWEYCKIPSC
Source text: as §1
The Ph.D.-C7C library (New England BioLabs Cat # 8120) is a combinatorial library consisting of random peptide 7-mers flanked by cysteine residues that under non-denaturing conditions are disulfide bonded resulting in the display of cyclized peptides. In non-reducing conditions, the cysteines form a disulfide bond resulting in each peptide being constrained in a disulfide loop. The library contains 3.7×10^9 independent clones that, like the Ph.D.-7 library, result in peptides fused to the pIII coat protein of M13 via a Gly-Gly-Gly-Ser flexible linker. Constrained libraries are useful in the identification of structural epitopes. The Ph.D.-C7C library was screened for the binding of 7 amino acid cyclized binding peptides.
The phage display libraries were screened following the manufacturers' recommendations. […]

[5] = target: recombinant human tropomyosin isoform 3 (human); assay: SPR (BIAcore 3000), rhTM3 immobilized, steady state model

binding to Endostatin protein (phage display selection) [3]: binds
binding to Endostatin protein (phage display selection) ([3]; listed as E37): found to bind rhEndostatin
Molecule: CTHWWHKRCGGGS (disulfide 1-9 (inferred)) [E37 peptide]
decrease in the anti-tumor activity of rhEndostatin ([1]; co-injection of 1.5 nmol rhEndostatin with 15 nmol E37 peptide): 11%
decrease in the anti-tumor activity of rhEndostatin ([1]; co-injection of 1.5 nmol rhEndostatin with 75 nmol E37 peptide): 30.5%
decrease in the anti-tumor activity of rhEndostatin ([1]; co-injection of 1.5 nmol rhEndostatin with 375 nmol E37 peptide): 84.5%
number of metastatic lesions on the lungs versus control group ([1]; up to 375 nmol/day E37 peptide in the absence of rhEndostatin): not statistically different from that of the control group
inhibition of binding of Alexa-labeled rhEndostatin to HUVEC microfilaments [2]: inhibited the binding of rhEndostatin to HUVEC microfilaments

binding to Angiostatin protein (phage display selection) [4]: binds
Molecule: H A I Y P R H G G G S (HAIYPRHGGGS) [Peptide A10]

Kd [5]: 100 µM
B1: recombinant human Endostatin protein (protein)
chain: T1 sequence (P39060 1572-1754 limits assumed)
modifications: Alexa Fluor 488 label in some experiments
